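In this assay, cells in 96-well plates receive the compound at five concentrations for 48 hours. Endpoints are linearly interpolated between the surrounding concentrations. GI50 = concentration required for 50% inhibition of growth. The concentration for full growth arrest is given as TGI.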
Tests used:
Experiment in all cases: NCI anticancer screen, dose series, 48 h
[1] = test system: BT-549 breast
[2] = test system: DU-145 prostate
[3] = test system: HCT-116 colon
[4] = test system: HL-60(TB) leukemia
[5] = test system: MCF7 breast
[6] = test system: NCI/ADR-RES ovarian
[7] = test system: OVCAR-3 ovarian
[8] = test system: SK-MEL-5 melanoma
[9] = test system: SNB-75 CNS
[10] = test system: T-47D breast

COC1=C(C)C(=O)c2c(c(COC(N)=O)c3n2CC(OC(C)=O)C3OC(C)=O)C1=O (centres undefined)
TGI [1]: 1.21 µM
TGI [2]: 0.265 µM
TGI [3]: 0.129 µM
TGI [4]: 0.202 µM
TGI [5]: 1.23 µM
TGI [6]: 0.979 µM
TGI [7]: 0.416 µM
TGI [8]: 0.392 µM
TGI [9]: 1.09 µM
TGI [10]: 3.11 µM

CSc1n[nH]c(N)c1C(=O)Nc1ccccc1
TGI [1]: > 100 µM
TGI [2]: > 100 µM
TGI [3]: > 100 µM
TGI [4]: > 100 µM
TGI [5]: > 100 µM
TGI [6]: > 100 µM
TGI [7]: > 100 µM
TGI [8]: > 100 µM
TGI [9]: > 100 µM
TGI [10]: > 100 µM

CN(C)CC1CCC(CN(C)C)C1=O (centres undefined)
TGI [3]: 5.23 µM
TGI [5]: 1.8 µM
TGI [6]: 63.8 µM
TGI [7]: 7.24 µM
TGI [8]: 15.9 µM
TGI [9]: 37.2 µM
TGI [10]: 3.48 µM

C[n+]1c(-c2ccc(/C=C/C=N\NC(=O)c3ccc(C(=O)N/N=C\C=C\c4ccc(-c5cn6ccccc6[n+]5C)cc4)cc3)cc2)cn2ccccc21
TGI [1]: > 100 µM
TGI [2]: 97.6 µM
TGI [3]: > 100 µM
TGI [4]: > 65.7 µM
TGI [5]: > 100 µM
TGI [6]: > 100 µM
TGI [7]: > 100 µM
TGI [8]: > 100 µM
TGI [9]: > 100 µM
TGI [10]: > 80.2 µM

COc1cc2c(cc1Cc1c(F)cccc1Cl)nc(-c1c(F)cccc1Cl)n2Cc1c(F)cccc1Cl
TGI [1]: > 100 µM
TGI [2]: > 100 µM
TGI [3]: > 100 µM
TGI [4]: > 100 µM
TGI [5]: > 100 µM
TGI [6]: > 100 µM
TGI [7]: > 100 µM
TGI [8]: > 100 µM
TGI [9]: 70.4 µM
TGI [10]: 59.5 µM

COc1ccc(CC2COc3cc(O)cc(O)c3C2=O)cc1O (centres undefined)
TGI [1]: > 100 µM
TGI [2]: 68.1 µM
TGI [4]: > 100 µM
TGI [5]: > 100 µM
TGI [6]: 8.78 µM
TGI [7]: 6.87 µM
TGI [8]: > 100 µM
TGI [9]: 6.98 µM
TGI [10]: > 100 µM

COc1ccc(CN2C3CC2CN(c2ccc(-c4cc(OCC(C)(C)O)cn5ncc(C#N)c45)cn2)C3)cn1
GI50 [1]: 3.34 µM
TGI [1]: > 100 µM
GI50 [2]: 26.2 µM
TGI [2]: > 100 µM
GI50 [3]: 8.06 µM
TGI [3]: > 100 µM
GI50 [4]: > 100 µM
TGI [4]: > 100 µM
GI50 [5]: 6.06 µM
TGI [5]: > 100 µM
GI50 [6]: 28.7 µM
TGI [6]: > 100 µM
GI50 [7]: > 100 µM
TGI [7]: > 100 µM
GI50 [8]: > 100 µM
TGI [8]: > 100 µM
GI50 [9]: 1320 nM
TGI [9]: 4.81 µM
GI50 [10]: 9.02 µM
TGI [10]: > 100 µM

CCON1CC(C(=O)OC)=C(O)C1=O
TGI [1]: > 100 µM
TGI [2]: > 100 µM
TGI [3]: > 100 µM
TGI [5]: > 100 µM
TGI [6]: > 100 µM
TGI [7]: > 100 µM
TGI [8]: > 100 µM
TGI [9]: > 100 µM
TGI [10]: > 100 µM

N#Cc1nc(NC(=O)c2ccccc2C(=O)O)c(C#N)[nH]1
TGI [2]: > 100 µM
TGI [3]: > 100 µM
TGI [4]: > 100 µM
TGI [5]: > 100 µM
TGI [6]: > 100 µM
TGI [7]: > 100 µM
TGI [8]: > 100 µM
TGI [9]: > 100 µM
TGI [10]: > 100 µM

CC(=O)OC1C(COC(=O)c2ccccc2)OC(Nc2ncc(-c3ccc(Br)cc3)s2)C(OC(=O)c2ccccc2)C1OC(=O)c1ccccc1 (centres undefined)
TGI [1]: > 100 µM
TGI [2]: > 100 µM
TGI [3]: > 100 µM
TGI [5]: > 100 µM
TGI [7]: > 100 µM
TGI [8]: > 100 µM
TGI [9]: > 100 µM
TGI [10]: > 100 µM

COc1ccc(C2c3cc4c(cc3OC(N3CCOCC3)C2C)OCO4)c(OC)c1OC (centres undefined)
TGI [3]: 22.3 µM
TGI [5]: 80.2 µM
TGI [6]: > 100 µM
TGI [7]: 45.6 µM
TGI [8]: 23.1 µM
TGI [10]: > 100 µM

COC(=O)c1cc(C#N)[nH]c1-c1cc(Br)cs1
TGI [1]: 35.1 µM
TGI [2]: 43.1 µM
TGI [3]: 28.3 µM
TGI [4]: 38.5 µM
TGI [5]: 33.7 µM
TGI [6]: 39.3 µM
TGI [7]: 21.9 µM
TGI [8]: 21.2 µM
TGI [9]: 22.6 µM
TGI [10]: 12.8 µM

COc1cc(NC(C)=O)ccc1C(=O)NN1C(=O)/C(=C/c2ccco2)N=C1c1ccccc1
TGI [1]: > 50 µM
TGI [2]: > 50 µM
TGI [3]: > 50 µM
TGI [4]: > 50 µM
TGI [5]: > 50 µM
TGI [6]: > 50 µM
TGI [7]: > 50 µM
TGI [8]: > 50 µM
TGI [9]: > 50 µM
TGI [10]: > 50 µM

CC(NC(=O)N(C)C)NC(=O)N(C)C
TGI [2]: > 10 µM
TGI [3]: > 10 µM
TGI [4]: > 10 µM
TGI [5]: > 10 µM
TGI [6]: > 10 µM
TGI [7]: > 10 µM
TGI [8]: > 10 µM
TGI [9]: > 10 µM
TGI [10]: > 10 µM

O=c1cc(N2CCCC2)[nH]c(=O)n1-c1ccccc1
TGI [1]: > 100 µM
TGI [2]: > 100 µM
TGI [3]: > 100 µM
TGI [4]: > 100 µM
TGI [5]: > 100 µM
TGI [6]: > 100 µM
TGI [8]: > 100 µM
TGI [9]: > 100 µM

OCc1ccc2c(c1)CC1(Cc3ccc(/C=N/O)cc3C1)C2 (centres undefined)
TGI [1]: > 66.4 µM
TGI [2]: > 100 µM
TGI [3]: > 100 µM
TGI [6]: 37 µM
TGI [7]: 17.1 µM
TGI [8]: 8.25 µM
TGI [9]: > 25.5 µM
TGI [10]: > 100 µM

C\C(=N/N=C1/C(=C\N(C)C)C(=O)NC(=O)N1C)c1ccc(Cl)cc1
TGI [1]: > 100 µM
TGI [2]: > 100 µM
TGI [3]: > 100 µM
TGI [5]: > 100 µM
TGI [6]: > 100 µM
TGI [7]: > 100 µM
TGI [8]: > 100 µM
TGI [9]: > 100 µM
TGI [10]: > 100 µM

Cc1cnc2c(c1)C(=O)C1=C(C2=O)C2OC(=O)CC2OC1(C)C (centres undefined)
TGI [1]: 0.363 µM
TGI [2]: 3.02 µM
TGI [3]: 0.399 µM
TGI [4]: 0.0142 µM
TGI [5]: 0.363 µM
TGI [7]: 0.153 µM
TGI [8]: 0.997 µM
TGI [9]: 4.1 µM
TGI [10]: 1.42 µM

CCOC(=O)C1CCC(=O)N1C(=O)c1ccccc1 (centres undefined)
TGI [1]: > 100 µM
TGI [2]: > 100 µM
TGI [3]: > 100 µM
TGI [4]: > 100 µM
TGI [5]: > 100 µM
TGI [6]: > 100 µM
TGI [7]: > 100 µM
TGI [8]: > 100 µM
TGI [10]: > 100 µM

O=C(N/N=C/c1ccc(Br)cc1)N/N=C/c1ccc(Br)cc1
TGI [1]: 52.9 µM
TGI [2]: > 100 µM
TGI [3]: > 100 µM
TGI [4]: 31.1 µM
TGI [5]: > 100 µM
TGI [6]: 29.6 µM
TGI [7]: 14.9 µM
TGI [8]: 31.6 µM
TGI [10]: > 100 µM

CN(C)CCC(=O)/C=C\c1ccccc1
TGI [3]: 28.7 µM
TGI [4]: 36.8 µM
TGI [7]: 32.2 µM
TGI [8]: 31.8 µM
TGI [9]: > 100 µM

CC(=O)OCc1c(O)c2c(c(O)c1COC(C)=O)C(=O)C=CC2=O
TGI [3]: 25.6 µM
TGI [4]: 46.7 µM
TGI [7]: 22.1 µM
TGI [8]: 28.5 µM
TGI [9]: 33.2 µM

— PubChem BioAssay (NCI)
